Experimental findings from US20050038110A1, “Selective androgen receptor modulators and methods of use thereof” (priority 2000, published 2005) are described below.

In series [1] the test system is androgen-responsive tissues (prostate, seminal vesicles and levator ani muscle) of castrated rats. In words: Androgenic and anabolic activity in castrated rat model, 14 days of administration. The settings on record: for Levator Ani organ weight / Prostate organ weight / Seminal Vesicles organ weight / prostate and seminal vesicle weights: 14 days; for Levator Ani organ weight / Prostate organ weight / Seminal Vesicles organ weight: mean ± S.D.; for prostate, seminal vesicle and levator ani muscle weights: 14 days (FIG. 3); for prostate and seminal vesicle weights: % of that observed in intact animals (FIG. 1).

Series [2] is described as follows: Pharmacokinetic studies (in vivo clearance). The settings on record: comparison among N-1 to N-4.
[3] abbreviates: compared with testosterone propionate (FIG. 3).

For the compound `C[C@](O)(COc1ccc(C#N)cc1)C(=O)Nc1ccc([N+](=O)[O-])c(C(F)(F)F)c1` [Compound N-2], the “weight of the levator ani muscle” value in series [1] (1 mg/day for 14 days) was 119%±16%.

`C[C@](O)(COc1ccc([N+](=O)[O-])cc1)C(=O)Nc1ccc([N+](=O)[O-])c(C(F)(F)F)c1` [Compound N-1]: the “weight of the levator ani muscle” value in series [1] (1 mg/day for 14 days) is 105%±13%.

On to `C[C@](O)(COc1ccc(C#N)cc1)C(=O)Nc1ccc(C#N)c(C(F)(F)F)c1` [Compound N-4], for which the in vivo clearance entry in series [2] is “lowest in vivo clearance”. Also, in series [1] (1 mg/day for 14 days), the “weight of the levator ani muscle” value was 142%±17%. Moreover, in series [1] (1 mg/day for 14 days, comparison among N-1 to N-4), the “in vivo pharmacologic activity” value is “greatest activity”.

Turning to `C[C@](O)(COc1ccc(F)cc1)C(=O)Nc1ccc(C#N)c(C(F)(F)F)c1` [Compound 5], the “Levator Ani organ weight” value in series [1] (0.10 mg/day) is 54.9 ± 5.77 % of intact; in series [1] (0.50 mg/day) it was 55.0 ± 9.23 % of intact; in series [1] (0.75 mg/day) it was 68.9 ± 8.46 % of intact; in series [1] (1.00 mg/day) it was 75.2±9.51 % of intact. The Prostate organ weight in series [1] (0.10 mg/day) is given as 6.4 ± 0.82 % of intact; in series [1] (0.50 mg/day) it was 6.2 ± 0.56 % of intact; in series [1] (0.75 mg/day), 7.6 ± 0.74 % of intact; in series [1] (1.00 mg/day) it was 8.7±1.39 % of intact. For the same compound, the “Seminal Vesicles organ weight” value was 8.8 ± 1.18 % of intact in series [1] (0.10 mg/day), 9.3 ± 1.57 % of intact in series [1] (0.50 mg/day), 9.8 ± 3.65 % of intact in series [1] (0.75 mg/day) and 10.7±0.91 % of intact in series [1] (1.00 mg/day).

Turning to `C[C@](O)(COc1ccc([N+](=O)[O-])cc1)C(=O)Nc1ccc(C#N)c(C(F)(F)F)c1` [Compound N-3], in series [1] (1 mg/day for 14 days), the “weight of the levator ani muscle” value is listed as 130%±5%.

With `C[C@](O)(COc1ccc(Cl)cc1)C(=O)Nc1ccc(C#N)c(C(F)(F)F)c1` [Compound 6], the “prostate, seminal vesicle and levator ani muscle weights” value in series [1] (0.1-1.0 mg/day) is recorded as “dose-dependent increases”. For the same compound, in series [1] (setting [3]), the “potency and intrinsic activity in increasing the weight of levator ani muscle” value is “greater potency and intrinsic activity”; the “potency and intrinsic activity in increasing the weights of prostate and seminal vesicle” value was “lower potency and intrinsic activity”. Also, in series [1] (dose as low as 0.3 mg/day, versus intact animals (FIG. 3)), the “levator ani muscle weight” value is “same level as that of intact animals”.

Take `C[C@](O)(COc1ccc(F)cc1)C(=O)Nc1ccc([N+](=O)[O-])c(C(F)(F)F)c1` [Compound 1]: the “prostate and seminal vesicle weights” value in series [1] (0.1-1.0 mg/day) is on record as “less than 20%”.

As for `C[C@](O)(COc1ccc(I)cc1)C(=O)Nc1ccc([N+](=O)[O-])c(C(F)(F)F)c1` [Compound 4], the “prostate and seminal vesicle weights” value in series [1] (0.1-1.0 mg/day) is on record as “less than 20%”.

With `C[C@](O)(COc1ccc(Cl)cc1)C(=O)Nc1ccc([N+](=O)[O-])c(C(F)(F)F)c1` [Compound 2], the “levator ani muscle weight” value in series [1] (0.1-1.0 mg/day, 14 days (FIG. 1), versus intact animals) is listed as “same level as that of intact animals”. For the same compound, in series [1] (0.1-1.0 mg/day), the “prostate and seminal vesicle weights” value is reported as “less than 40%”.

Consider `CCC(=O)O[C@H]1CC[C@H]2[C@@H]3CCC4=CC(=O)CC[C@]4(C)[C@H]3CC[C@]12C` [testosterone propionate, reference compound], for which the “prostate, seminal vesicle and levator ani muscle weights” value in series [1] (0.1-1.0 mg/day) is recorded as “dose-dependent manner”.

As to `C[C@](O)(COc1ccc(Br)cc1)C(=O)Nc1ccc([N+](=O)[O-])c(C(F)(F)F)c1` [Compound 3], the “prostate and seminal vesicle weights” value in series [1] (0.1-1.0 mg/day) is listed as “less than 20%”.
